Values of other authors in patent EP0517160B1, “Extended-release ophthalmic preparations” (INVERNI DELLA BEFFA S.P.A., priority 1991, dated 1992).

For C=CC1(C)CC(=O)C2(O)C(C)(O1)C(OC(C)=O)C(O)C1C(C)(C)CCC(O)C12C (stereo not drawn) [forskoline, 7β-acetoxy-8,13-epoxy-1α,6β,9α-trihydroxy-labd-14-en-11-one], the “maximum of forskoline that dissolves” value (poloxamer 407 25% w/v in water, at 5°C) is listed as 0.12% and the “solubility in water (in words)” value (water) is listed as “pratically insoluble in water”.
